Data reported in patent US11655235B2, “Pyrrolidine and piperidine compounds” (YUHAN CORPORATION, priority 2019, dated 2023).

How the values were obtained:
[1] = target: T1, recombinant human DPP7 (Homo sapiens, UniProt Q9UHL4); assay: DPP7 inhibition, fluorogenic substrate Lys-Pro-AMC; assay type: biochemical; conditions: recombinant human DPP7
T1 construct: purchased R&D Systems
Outline: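 Enzyme per reaction: 50 ng DPP9, 20 ng DPP8, 10 ng each DPP7 and PREP. Compounds were serially diluted (8 points, up to 0.5% DMSO) and incubated at 25 °C.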

[2] = target: T2, Recombinant human FAP (Homo sapiens, UniProt Q12884); assay: FAP FRET assay, FGF21-sequence FRET peptide substrate; assay type: biochemical; conditions: FRET peptide with human FGF21 sequence, 6 μM, 37° C.
T2 construct: purchased R&D systems
T2 sequence (Q12884 1-760): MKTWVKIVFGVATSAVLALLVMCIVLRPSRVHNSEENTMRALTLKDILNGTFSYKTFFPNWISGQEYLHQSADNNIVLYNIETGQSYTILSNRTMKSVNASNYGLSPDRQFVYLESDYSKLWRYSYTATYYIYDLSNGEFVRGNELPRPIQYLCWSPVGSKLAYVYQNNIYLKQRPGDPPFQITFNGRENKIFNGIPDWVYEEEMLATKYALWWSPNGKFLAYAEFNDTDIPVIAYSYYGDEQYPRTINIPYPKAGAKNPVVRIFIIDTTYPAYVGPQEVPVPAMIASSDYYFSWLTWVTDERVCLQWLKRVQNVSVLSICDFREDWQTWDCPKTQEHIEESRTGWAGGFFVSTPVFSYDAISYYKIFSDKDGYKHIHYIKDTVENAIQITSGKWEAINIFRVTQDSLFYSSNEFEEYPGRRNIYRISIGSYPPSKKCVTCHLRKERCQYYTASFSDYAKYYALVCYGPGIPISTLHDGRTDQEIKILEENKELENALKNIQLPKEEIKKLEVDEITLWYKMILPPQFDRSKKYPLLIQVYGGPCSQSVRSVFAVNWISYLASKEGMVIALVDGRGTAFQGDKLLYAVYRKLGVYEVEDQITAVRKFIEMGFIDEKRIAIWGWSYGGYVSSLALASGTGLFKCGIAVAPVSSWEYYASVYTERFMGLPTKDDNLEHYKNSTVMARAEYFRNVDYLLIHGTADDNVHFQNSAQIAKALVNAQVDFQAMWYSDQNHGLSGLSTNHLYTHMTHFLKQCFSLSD
Outline: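 Recombinant human FAP, 10 ng per reaction, in 50 mM HEPES pH 7.2 with 150 mM NaCl, 0.1 mg/ml BSA, 1 mM EDTA; HyLite Fluor 488/QXL 520 FRET peptide of human FGF21 sequence at 6 μM final, ≤0.1% DMSO, 37° C. IC50 from 8-point curves by four-parameter logistic fit.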

Row | SMILES | IC50 [1] [nM] | IC50 [2] [nM]
1 | N#C[C@@H]1C[C@H](F)CN1C(=O)CN1CC[C@H](Nc2cccc3ncc(F)cc23)C1 [Example 255, (2S,4S)-4-fluoro-1-[2-[(3S)-3-[(3-fluoro-5-quinolyl)amino]pyrrolidin-1-yl]acetyl]pyrrolidine-2-carbonitrile] | 1850 | 1
2 | COc1cc2c(NC3CCN(CC(=O)N4C[C@@H](F)C[C@H]4C#N)CC3)cccc2cn1 [Example 355, (2S,4S)-4-fluoro-1-[2-[4-[(3-methoxy-5-isoquinolyl)amino]-1-piperidyl]acetyl]pyrrolidine-2-carbonitrile] | 846 | 2.5
3 | N#C[C@@H]1C[C@H](F)CN1C(=O)CN1CC[C@H](Nc2ccc(OCc3ccccc3)c3ncccc23)C1 [Example 268, (2S,4S)-4-fluoro-1-[2-[(3S)-3-[(8-benzyloxy-5-quinolyl)amino]pyrrolidin-1-yl]acetyl]pyrrolidine-2-carbonitrile] | 511 | 0.7
4 | N#C[C@@H]1C[C@H](F)CN1C(=O)CN1CCC(Nc2ccc(C(F)(F)F)c3ncccc23)CC1 [Example 334, (2S,4S)-4-fluoro-1-[2-[4-[[8-(trifluoromethyl)-5-quinolyl]amino]-1-piperidyl]acetyl]pyrrolidine-2-carbonitrile] | 404 | 2.6
5 | N#Cc1ccc(N[C@H]2CCN(CC(=O)N3CCC[C@H]3C#N)C2)c2cccnc12 [Example 247, 5-[[(3S)-1-[2-oxo-2-[(2S)-2-cyanopyrrolidin-1-yl]ethyl]pyrrolidin-3-yl]amino]quinoline-8-carbonitrile] | > 50000 | 2
6 | N#C[C@@H]1C[C@H](F)CN1C(=O)CN1CCC(Nc2ccc(OC(F)(F)F)c3ncccc23)CC1 [Example 347, (2S,4S)-4-fluoro-1-[2-[4-[[8-(trifluoromethoxy)-5-quinolyl]amino]-1-piperidyl]acetyl]pyrrolidine-2-carbonitrile] | 1010 | 5.7
7 | N#C[C@@H]1CCCN1C(=O)CN1CC[C@H](Nc2ccc(C(F)(F)F)c3ncccc23)C1 [Example 245, (2S)-1-[2-[(3S)-3-[[8-(trifluoromethyl)-5-quinolyl]amino]pyrrolidin-1-yl]acetyl]pyrrolidine-2-carbonitrile] | 3750 | 1.2
8 | COc1cnc2cccc(NC3CCN(CC(=O)N4C[C@@H](F)C[C@H]4C#N)CC3)c2c1 [Example 348, (2S,4S)-4-fluoro-1-[2-[4-[(3-methoxy-5-quinolyl)amino]-1-piperidyl]acetyl]pyrrolidine-2-carbonitrile] | 612 | 3.9
9 | N#C[C@@H]1C[C@H](F)CN1C(=O)CN1CC[C@H](Nc2cccc3ncccc23)C1 [Example 228, (2S,4S)-4-fluoro-1-[2-[(3S)-3-(5-quinolylamino)pyrrolidin-1-yl]acetyl]pyrrolidine-2-carbonitrile] | 387 | 3
10 | Cc1ccc2nccc(OC3CCN(CC(=O)N4C[C@@H](F)C[C@H]4C#N)CC3)c2c1 [Example 410, (2S,4S)-4-fluoro-1-[2-[4-[(6-methyl-4-quinolyl)oxy]-1-piperidyl]acetyl]pyrrolidine-2-carbonitrile] | 4730 | 1.5
11 | N#C[C@@H]1C[C@H](F)CN1C(=O)CN1CC[C@H](Nc2ccc(OC(F)(F)F)c3ncccc23)C1 [Example 266, (2S,4S)-4-fluoro-1-[2-[(3S)-3-[[8-(trifluoromethoxy)-5-quinolyl]amino]pyrrolidin-1-yl]acetyl]pyrrolidine-2-carbonitrile] | 1070 | 1.2
12 | N#C[C@@H]1CCCN1C(=O)CN1CC[C@H](Nc2ccc(F)c3ncccc23)C1 [Example 244, (2S)-1-[2-[(3S)-3-[(8-fluoro-5-quinolyl)amino]pyrrolidin-1-yl]acetyl]pyrrolidine-2-carbonitrile] | 9140 | 5.6
13 | COc1ccc(N[C@H]2CCN(CC(=O)N3C[C@@H](F)C[C@H]3C#N)C2)c2cccnc12 [Example 263, (2S,4S)-4-fluoro-1-[2-[(3S)-3-[(8-methoxy-5-quinolyl)amino]pyrrolidin-1-yl]acetyl]pyrrolidine-2-carbonitrile] | 554 | 1.9
14 | COc1cnc2cccc(N[C@H]3CCN(CC(=O)N4CCC[C@H]4C#N)C3)c2c1 [Example 233, (2S)-1-[2-[(3S)-3-[(3-methoxy-5-quinolyl)amino]pyrrolidin-1-yl]acetyl]pyrrolidine-2-carbonitrile] | 1070 | 0.7
15 | N#C[C@@H]1C[C@H](F)CN1C(=O)CN1CCC(Nc2cccc3cnc(Cl)cc23)CC1 [Example 352, (2S,4S)-1-[2-[4-[(3-chloro-5-isoquinolyl)amino]-1-piperidyl]acetyl]-4-fluoro-pyrrolidine-2-carbonitrile] | 2930 | 2.5
16 | N#C[C@@H]1C[C@H](F)CN1C(=O)CN1CCC(Nc2cccc3ncc(F)cc23)CC1 [Example 349, (2S,4S)-4-fluoro-1-[2-[4-[(3-fluoro-5-quinolyl)amino]-1-piperidyl]acetyl]pyrrolidine-2-carbonitrile] | 1990 | 4
17 | N#Cc1cnc2cccc(N[C@H]3CCN(CC(=O)N4CCC[C@H]4C#N)C3)c2c1 [Example 232, 5-[[(3S)-1-[2-oxo-2-[(2S)-2-cyanopyrrolidin-1-yl]ethyl]pyrrolidin-3-yl]amino]quinoline-3-carbonitrile] | 7150 | 1.8
